Laboratory results reported in patent publication US7976877B2, “Use of knotwood extracts” (Oy Arbonova Ab, priority 2003, dated 2011).

Legend:
Assay type in all cases: biochemical
[1] = test system: t-butylhydroperoxide (t-BuOOH) induced lipid peroxidation in rat liver microsomes; test: Inhibition of t-BuOOH induced lipid peroxidation in rat liver microsomes in vitro (luminol-enhanced chemiluminescence)
Source text: Estimation of inhibition of lipid peroxidation. The antioxidant properties of the extracts, fractions thereof and the pure compounds were estimated by their potency to inhibit t-butylhydroperoxide (t-BuOOH) induced lipid peroxidation in rat liver microsomes in vitro (17) and by their capacity to trap superoxide (oxygen radical) and peroxyl radicals, estimated by chemiluminescence-based methodology (17). The lipid peroxidation was detected by luminol-enhanced chemiluminescence. Test compounds or extracts were added to incubation mixtures in a small volume (2% of incubation volume), and the lipid peroxidation potency was compared to that of the vehicle (ethanol). Assays for the t-BuOOH-initiated lipid peroxidation was performed as follows. The buffer (50 mM sodium carbonate, pH 10.2, with 0.1 mM EDTA) was pipetted in a volume of 0.8 mL in the luminometer cuvette. 20 μL of diluted rat liver microsomes (final concentration 1.5 μg protein/mL) was added, followed by 6 μL of luminol (0.5 mg/mL) and test chemicals. The reaction was initiated by 0.05 mL of 0.9 mM t-BuOOH at 33° C. The chemiluminescence was measured for 45 min at 1 min cycles. The tests were repeated two to four times on separate days. Variation between assays were <10%.

[2] = Scavenging of superoxide radicals in vitro (xanthine-xanthine oxidase system, lucigenin chemiluminescence)
Procedure: (§1) Estimation of free radical trapping capacity. The capacity of the extracts, fractions thereof and the pure compounds to trap superoxide (oxygen radical) and peroxyl radicals was estimated by chemiluminescence-based methodology (17). Superoxide anions were produced by xanthine-xanthine oxidase system as follows. 20 μL of xanthine oxidase (420 mU/mL), 0.02 mL of 5 mM lucigenin, 0.02 mL of 200 mM linoleic acid dissolved in 50 mM KOH, 0.78 mL of 50 mM potassium phosphate buffer, pH 10.0, and test samples were pipetted in cuvettes. The reaction was initiated by the automated dispensing of 0.11 mL of 1.45 mM xanthine (final volume 1.0 mL). Chemiluminescence in duplicate samples at 35° C. was measured for 6 min in 1-min cycles. Peroxyl radicals were generated by thermal decomposition of 2,2′-azobis(2-amidinopropane)-hydrochloride as follows. 0.45 mL of 0.1 M sodium phosphate buffer, pH 7.4, containing 0.9% NaCl, 0.02 mL of 120 mM linoleic acid, 0.05 mL of luminol (0.5 mg/mL) and test compounds were mixed in the cuvette. The assay was initiated by 0.05 mL of ABAP (83 mg/mL). Chemiluminescence in triplicate cuvettes at 37° C. was measured until a peak value for each sample was detected. The half-peak time point defined the peroxyl radical trapping capacity.

[3] = Scavenging of peroxyl radicals in vitro (thermal decomposition of ABAP, luminol chemiluminescence); details: for Stoichiometric factor (peroxyl radicals), range over the two test series: Series 1 and 2 together
Procedure: as §1

[4] = Series 1, pure compounds, rat liver microsomes
[5] = knotwood extracts, fractions and reference compounds, rat liver microsomes
[6] = knotwood extracts, fractions and reference compounds
[7] = Series 2, pure compounds, different batch of rat liver microsomes

| Compound | IC50 [1, 4] | Inhibition of lipid peroxidation in vitro, IC50 [1, 5] | IC50 ([2]; Series 1, pure compounds) | Scavenging of superoxide radicals in vitro, IC50 [2, 6] | IC50 [1, 7] | Inhibition of lipid peroxidation in vitro, IC50 [1, 7] | Stoichiometric factor (peroxyl radicals scavenged per mole of compound) ([3]; Series 1, pure compounds) | Trapping capacity (peroxyl radicals scavenged per gram) ([3]; Series 1, pure compounds) | Stoichiometric factor (peroxyl radicals), range over the two test series [3] | Stoichiometric factor (peroxyl radicals scavenged per mole of compound) ([3]; Series 2, pure compounds) | Trapping capacity (peroxyl radicals scavenged per gram) ([3]; Series 2, pure compounds) | Trapping capacity (peroxyl radicals scavenged per gram) ([3]; knotwood extracts, fractions and reference compound) | Inhibition of lipid peroxidation in vitro, IC50 [1, 4] | Scavenging of superoxide radicals in vitro, IC50 ([2]; Series 1, pure compounds) | Scavenging of superoxide radicals in vitro, IC50 ([2]; Series 1, pure compounds, listed as secoisolariciresinol) | Scavenging of superoxide radicals in vitro, IC50 ([2]; Series 1, pure compounds, listed as nortrachelogenin) |
| --- | --- | --- | --- | --- | --- | --- | --- | --- | --- | --- | --- | --- | --- | --- | --- | --- |
| COc1ccc(O)c(C(C)(C)C)c1 [BHA, butylated hydroxyanisole, reference compound] | 1100 nM | 0.198 µg/mL | 15 nM | 0.0027 µg/mL | – | – | – | – | – | – | – | – | – | – | – | – |
| Cc1c(C)c2c(c(C)c1O)CCC(C)(C(=O)O)O2 (centres unmarked) [Trolox, 6-hydroxy-2,5,7,8-tetramethylchroman-2-carboxylic acid, reference compound] | 20 nM | 0.005 µg/mL | 25 nM | 0.0063 µg/mL | 180 nM | 0.046 µg/mL | 2.0 mole/mole | 8.0 mmol/g | 1.7-2.0 mole/mole | 1.7 mole/mole | 6.8 mmol/g | 8.0 mmol/g | – | – | – | – |
| COc1cc(C[C@@H](CO)[C@H](CO)Cc2ccc(O)c(OC)c2)ccc1O [Secoisolariciresinol] | 100 nM | – | 4.8 nM | – | 150 nM | 0.054 µg/mL | 3.1 mole/mole | 8.5 mmol/g | 3.1-4.0 mole/mole | 4.0 mole/mole | 11 mmol/g | – | 0.037 µg/mL | 0.0018 µg/mL | more effective scavengers than both BHA and Trolox | – |
| COc1cc(C[C@H]2COC(=O)[C@@H]2Cc2ccc(O)c(OC)c2)ccc1O [Matairesinol] | 280 nM | – | 40 nM | – | – | – | 1.0 mole/mole | 2.9 mmol/g | – | – | – | – | 0.099 µg/mL | 0.014 µg/mL | – | – |
| COc1cc(C[C@H]2CO[C@H](c3ccc(O)c(OC)c3)[C@H]2CO)ccc1O [Lariciresinol] | 350 nM | – | 35 nM | – | 170 nM | 0.063 µg/mL | 1.0 mole/mole | 2.7 mmol/g | – | 2.6 mole/mole | 7.3 mmol/g | – | 0.126 µg/mL | 0.013 µg/mL | – | – |
| COc1cc(CC2COC(=O)C2(O)Cc2ccc(O)c(OC)c2)ccc1O (centres unmarked) [Nortrachelogenin] | 140 nM | – | 1.4 nM | – | 190 nM | 0.07 µg/mL | 2.2 mole/mole | 5.9 mmol/g | – | 2.0 mole/mole | 5.3 mmol/g | – | 0.053 µg/mL | 0.00053 µg/mL | – | more effective scavengers than both BHA and Trolox |
| COc1cc(C[C@H]2C(=O)OC[C@@H]2[C@H](O)c2ccc(O)c(OC)c2)ccc1O [Hydroxymatairesinol] | 150 nM | – | 217 nM | – | 180 nM | 0.067 µg/mL | 2.1 mole/mole | 5.6 mmol/g | – | 2.7 mole/mole | 7.3 mmol/g | – | 0.058 µg/mL | 0.081 µg/mL | – | – |
